pKd: −log10 of the molar value. Peptide text beside a SMILES is read from it.
Legend:
Assay in all cases: Fluorescence polarization SH3 domain-PRP binding
Details in all cases: FP, 0.2 µM fluorescein-labeled peptide, SH3 domain 0-200 µM, Tris/HCl pH 7.5, 25 °C, quadratic fit
[1] = biological target: T1, ABI1 SH3 domain (aa 446-505) (Homo sapiens, UniProt Q8IZP0)
T1 construct: 446-505; GST (N); made in house; host or cells: Escherichia coli CodonPlus, Rosetta, BL21(DE3)
Description: (§1) The interaction between fluorescein-labeled proline-rich peptides (0.2 µM) and increasing concentrations of SH3 domains (ranging from 0 to 200 µM) was measured in a buffer (containing 30 mM Tris/HCl (pH 7.5), 5 mM MgCl2, and 3 mM DTT at 25 °C) in a total volume of 200 µL using a Fluoromax 4 fluorimeter in polarization mode and a quartz glass fluorescence cuvette (Hellma Ultra-Micro Cuvette 105.250-QS, Thermo Fisher Scientific, Waltham, MA USA). Excitation was performed at 470 nm and emission was measured at 560 nm. Dissociation constants (Kd) were determined by fitting the concentration-dependent binding curve to a quadratic ligand binding equation.
(§2) Fluorescence polarization measurements were performed to determine the binding affinities of SH3 domain–PRP interaction pairs from the dot blot analysis. SH3 proteins were titrated at increasing concentrations against fluorescent PRPs, which were kept at a constant concentration of 0.2 µM. GRB2-2^W193K, which is defective in the binding of PRPs such as RP1, was used as a negative control as previously described. […] The resulting data (Figure S6) allowed the evaluation of equilibrium dissociation constants (Kd) for 45 interactions between the SH3 domains and the PRPs (Figure 2B; Table S6).
(§3) Figure S6. Interactions of the SH3 domains with fluorescent PRPs measured by fluorescence polarization.
(§4) Fluorescent peptides (0.2 µM) were titrated with increasing concentrations of the corresponding SH3 domains.
(§5) GRB2-2W193K, defective in the binding of PRPs such as RP1, was used as a negative control as previously described. The x-axis represents SH3 domain concentrations as GST fusion proteins in µM, while the y-axis represents fluorescence polarization. The equilibrium dissociation constants (Kd) for the respective measurements were determined by fitting the titration curves to a quadratic ligand-binding equation (solid lines). All Kd values are […]
(§6) Error bars are derived from the fitting errors.
(§7) (1 picture or pasted object on this page, not shown here)

[2] = biological target: T2, ABL2 SH3 domain (aa 107-167) (Homo sapiens, UniProt P42684)
T2 construct: 107-167; GST (N); made in house; host or cells: Escherichia coli CodonPlus, Rosetta, BL21(DE3)
T2 sequence (P42684 107-167): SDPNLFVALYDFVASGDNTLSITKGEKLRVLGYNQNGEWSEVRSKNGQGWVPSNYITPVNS
Description: as §1, §2, §3, §4, §5, §6, §7

[3] = biological target: T3, ARHGAP12 SH3 domain (aa 12-74) (Homo sapiens, UniProt Q8IWW6)
T3 construct: 12-74; GST (N); made in house; host or cells: Escherichia coli CodonPlus, Rosetta, BL21(DE3)
T3 sequence (Q8IWW6 12-74): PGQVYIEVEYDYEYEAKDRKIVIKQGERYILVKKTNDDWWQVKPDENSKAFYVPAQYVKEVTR
Description: as §1, §2, §3, §4, §5, §6, §7

[4] = biological target: T4, BIN1 SH3 domain (aa 520-593) (Homo sapiens, UniProt O00499)
T4 construct: 520-593; GST (N); made in house; host or cells: Escherichia coli CodonPlus, Rosetta, BL21(DE3)
T4 sequence (O00499 520-593): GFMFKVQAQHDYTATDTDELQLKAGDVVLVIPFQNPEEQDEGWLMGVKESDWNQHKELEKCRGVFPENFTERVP
Description: as §1, §2, §3, §4, §5, §6, §7

[5] = biological target: T5, CRK-1 SH3 domain (aa 132-192) (Homo sapiens, UniProt P46108)
T5 construct: 132-192; GST (N); made in house; host or cells: Escherichia coli CodonPlus, Rosetta, BL21(DE3)
T5 sequence (P46108 132-192): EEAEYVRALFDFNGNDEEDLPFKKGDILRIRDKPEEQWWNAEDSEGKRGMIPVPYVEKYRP
Description: as §1, §2, §3, §4, §5, §6, §7

[6] = biological target: T6, DLG2 SH3 domain (aa 536-606) (Homo sapiens, UniProt Q15700)
T6 construct: 536-606; GST (N); made in house; host or cells: Escherichia coli CodonPlus, Rosetta, BL21(DE3)
T6 sequence (Q15700 536-606): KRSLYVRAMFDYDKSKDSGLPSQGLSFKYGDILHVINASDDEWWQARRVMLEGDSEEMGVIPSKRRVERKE
Description: as §1, §2, §3, §4, §5, §6, §7

[7] = biological target: T7, GRB2-1 SH3 domain (aa 1-58) (Homo sapiens, UniProt P62993)
T7 construct: 1-58; GST (N); made in house; host or cells: Escherichia coli CodonPlus, Rosetta, BL21(DE3)
T7 sequence (P62993 1-58): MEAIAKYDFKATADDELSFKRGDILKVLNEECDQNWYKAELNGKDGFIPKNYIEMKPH
Description: as §1, §2, §3, §4, §5, §6, §7

[8] = biological target: T8, GRB2-2 SH3 domain (aa 158-215) (Homo sapiens, UniProt P62993)
T8 construct: 158-215; GST (N); made in house; host or cells: Escherichia coli CodonPlus, Rosetta, BL21(DE3)
T8 sequence (P62993 158-215): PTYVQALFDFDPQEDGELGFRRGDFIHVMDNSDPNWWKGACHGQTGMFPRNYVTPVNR
Description: as §1, §2, §3, §4, §5, §6, §7

[9] = biological target: T9, ITSN1-1 SH3 domain (aa 740-806) (Homo sapiens, UniProt Q15811)
T9 construct: 740-806; GST (N); made in house; host or cells: Escherichia coli CodonPlus, Rosetta, BL21(DE3)
T9 sequence (Q15811 740-806): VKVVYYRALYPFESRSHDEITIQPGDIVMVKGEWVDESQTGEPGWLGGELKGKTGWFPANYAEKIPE
Description: as §1, §2, §3, §4, §5, §6, §7

[10] = biological target: T10, ITSN1-2 SH3 domain (aa 913-971) (Homo sapiens, UniProt Q15811)
T10 construct: 913-971; GST (N); made in house; host or cells: Escherichia coli CodonPlus, Rosetta, BL21(DE3)
T10 sequence (Q15811 913-971): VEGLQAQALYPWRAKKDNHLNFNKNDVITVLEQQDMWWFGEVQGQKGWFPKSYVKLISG
Description: as §1, §2, §3, §4, §5, §6, §7

[11] = biological target: T11, ITSN1-3 SH3 domain (aa 1002-1060) (Homo sapiens, UniProt Q15811)
T11 construct: 1002-1060; GST (N); made in house; host or cells: Escherichia coli CodonPlus, Rosetta, BL21(DE3)
T11 sequence (Q15811 1002-1060): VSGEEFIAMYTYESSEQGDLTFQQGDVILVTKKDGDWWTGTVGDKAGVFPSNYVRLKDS
Description: as §1, §2, §3, §4, §5, §6, §7

[12] = biological target: T12, ITSN1-5 SH3 domain (aa 1155-1214) (Homo sapiens, UniProt Q15811)
T12 construct: 1155-1214; GST (N); made in house; host or cells: Escherichia coli CodonPlus, Rosetta, BL21(DE3)
T12 sequence (Q15811 1155-1214): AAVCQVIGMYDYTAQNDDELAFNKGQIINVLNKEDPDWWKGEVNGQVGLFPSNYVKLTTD
Description: as §1, §2, §3, §4, §5, §6

T1 sequence (Q8IZP0 446-505): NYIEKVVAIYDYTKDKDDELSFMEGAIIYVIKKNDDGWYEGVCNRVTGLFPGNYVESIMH

Structure (SMILES) | pKd [1] | pKd [2] | pKd [3] | pKd [4] | pKd [5] | pKd [6] | pKd [7] | pKd [8] | pKd [9] | pKd [10] | pKd [11] | pKd [12]
CC[C@H](C)[C@H](N)C(=O)N[C@@H](CO)C(=O)N[C@@H](CC(=O)O)C(=O)N1CCC[C@H]1C(=O)N1CCC[C@H]1C(=O)N[C@@H](CCC(=O)O)C(=O)N[C@@H](CO)C(=O)N1CCC[C@H]1C(=O)N1CCC[C@H]1C(=O)N[C@@H](CC(C)C)C(=O)N[C@@H](CC(C)C)C(=O)N1CCC[C@H]1C(=O)N1CCC[C@H]1C(=O)N[C@@H](CCCNC(=N)N)C(=O)N[C@@H](CCC(=O)O)C(=O)N1CCC[C@H]1C(=O)N[C@H](C(=O)N[C@@H](CCCNC(=N)N)C(=O)N[C@H](C(=O)N1CCC[C@H]1C(=O)N[C@@H](CC(=O)O)C(=O)N[C@H](C(=O)O)C(C)C)[C@@H](C)O)C(C)C [Peptide P5] (H-ISDPPESPPLLPPREPVRTPDV-OH) | < 3.70 | < 3.70 | < 3.70 | < 3.70 | < 3.70 | < 3.70 | 4.21 | 4.46 | < 3.70 | < 3.70 | < 3.70 | < 3.70
CC(C)[C@H](NC(=O)[C@@H]1CCCN1C(=O)[C@@H]1CCCN1C(=O)[C@H](C)NC(=O)[C@H](CCC(=O)O)NC(=O)[C@H](CS)NC(=O)[C@@H](N)CCCNC(=N)N)C(=O)N1CCC[C@H]1C(=O)N1CCC[C@H]1C(=O)N[C@@H](CCCNC(=N)N)C(=O)N[C@@H](CCCNC(=N)N)C(=O)N[C@@H](CCC(=O)O)C(=O)N[C@@H](CCCNC(=N)N)C(=O)NCC(=O)O [RP2, reference compound] (H-RCEAPPVPPRRERG-OH) | < 3.70 | < 3.70 | 4.81 | 4.32 | < 3.70 | < 3.70 | 4.70 | 4.89 | 4.96 | < 3.70 | < 3.70 | 4.64
CC(C)C[C@H](NC(=O)[C@H](Cc1c[nH]cn1)NC(=O)[C@H](CC(C)C)NC(=O)[C@@H]1CCCN1C(=O)[C@H](CO)NC(=O)[C@H](CO)NC(=O)[C@@H](N)CO)C(=O)N[C@@H](CCC(N)=O)C(=O)N1CCC[C@H]1C(=O)N1CCC[C@H]1C(=O)N1CCC[C@H]1C(=O)N[C@@H](CC(C)C)C(=O)NCC(=O)N[C@@H](CCCCN)C(=O)N[C@@H](CCCCN)C(=O)O [Peptide P6] (H-SSSPLHLQPPPLGKK-OH; N-terminus and C-terminus assumed) | < 3.70 | < 3.70 | < 3.70 | < 3.70 | < 3.70 | < 3.70 | < 3.70 | < 3.70 | < 3.70 | < 3.70 | < 3.70 | < 3.70
CC(C)C[C@H](NC(=O)[C@@H]1CCCN1C(=O)[C@@H]1CCCN1C(=O)[C@H](CO)NC(=O)[C@@H]1CCCN1C(=O)[C@H](CC(C)C)NC(=O)[C@H](Cc1c[nH]cn1)NC(=O)[C@@H](N)CCCNC(=N)N)C(=O)N[C@H](C(=O)N[C@@H](CCC(N)=O)C(=O)O)[C@@H](C)O [Peptide P8] (H-RHLPSPPLTQ-OH; N-terminus and C-terminus assumed) | < 3.70 | < 3.70 | < 3.70 | < 3.70 | < 3.70 | < 3.70 | < 3.70 | < 3.70 | < 3.70 | < 3.70 | < 3.70 | < 3.70
CC(C)[C@H](N)C(=O)N1CCC[C@H]1C(=O)N[C@H](C(=O)N1CCC[C@H]1C(=O)N1CCC[C@H]1C(=O)N1CCC[C@H]1C(=O)N[C@H](C(=O)N1CCC[C@H]1C(=O)N1CCC[C@H]1C(=O)N[C@@H](CCCNC(=N)N)C(=O)N[C@@H](CCCNC(=N)N)C(=O)N[C@@H](CCCNC(=N)N)C(=O)O)C(C)C)C(C)C [RP1, reference compound] | < 3.70 | 4.96 | 4.78 | < 3.70 | < 3.70 | < 3.70 | 4.96 | 5.47 | 4.41 | < 3.70 | < 3.70 | < 3.70
CC[C@H](C)[C@H](NC(=O)[C@H](CCCCN)NC(=O)[C@H](CO)NC(=O)[C@@H]1CCCN1C(=O)[C@H](CO)NC(=O)[C@H](CO)NC(=O)[C@H](CCC(=O)O)NC(=O)[C@H](C)NC(=O)[C@@H]1CCCN1C(=O)[C@H](C)NC(=O)[C@H](CO)NC(=O)[C@H](CCC(=O)O)NC(=O)[C@@H]1CCCN1C(=O)[C@H](CCCNC(=N)N)NC(=O)[C@H](CCCNC(=N)N)NC(=O)[C@H](CCCNC(=N)N)NC(=O)[C@@H]1CCCN1C(=O)[C@@H]1CCCN1C(=O)[C@@H](NC(=O)[C@@H]1CCCN1C(=O)[C@@H]1CCCN1C(=O)[C@@H]1CCCN1C(=O)[C@@H](NC(=O)[C@@H]1CCCN1C(=O)[C@@H](NC(=O)[C@@H](N)CCC(=O)O)C(C)C)C(C)C)C(C)C)C(=O)O [Peptide P3] (H-EVPVPPPVPPRRRPESAPAESSPSKI-OH) | < 3.70 | < 3.70 | 4.86 | < 3.70 | 4.89 | < 3.70 | 4.82 | 4.92 | < 3.70 | < 3.70 | < 3.70 | < 3.70
CC(C)C[C@H](NC(=O)[C@@H](NC(=O)[C@@H](N)C(C)C)[C@@H](C)O)C(=O)N1CCC[C@H]1C(=O)N[C@@H](Cc1c[nH]cn1)C(=O)NCC(=O)N1CCC[C@H]1C(=O)N[C@@H](CCCNC(=N)N)C(=O)N[C@@H](CO)C(=O)N[C@@H](C)C(=O)O [Peptide P2] (H-VTLPHGPRSA-OH) | 4.22 | < 3.70 | < 3.70 | < 3.70 | < 3.70 | < 3.70 | < 3.70 | < 3.70 | < 3.70 | < 3.70 | < 3.70 | < 3.70
